Where a SMILES comes first, the peptide text is derived from it. [ ]: non-standard residue; d: D form. Aib = CC(C)(N)C(=O)O
Experiments:
human GLP-1R = human GLP-1R (Homo sapiens, UniProt P43220); experiment: Peptide-receptor mediated cAMP accumulation (LANCE Ultra cAMP) in CHO-K1 cells transfected with human GLP-1R; format: cell-based; settings: hGLP1 pEC50 (cAMP mean (n = 3): 11 point curve starting at 1 nM, Table 3)
in vivo = settings: male, rat
Description: Peptides were formulated in sterile saline and administered as a 3-hour intravenous infusion to non-fasted male Wistar Han or Sprague-Dawley rats (n=3 per group) via jugular vein cannula at a final dose of 0.3 or 0.1 mg/kg. […] Plasma was prepared by centrifugation and stored at −80° C. until analysis.
Protein Precipitation: All 96-well plates were coated with a blocking agent to mitigate non-specific binding of peptides. Plasma samples (75 uL) were added to a 96-well plate containing 200 uL of 2:1 ethanol:acetonitrile containing 0.1% TFA and mixed well via aspiration. Plates were capped, vortex-mixed and centrifuged. Supernatants (215 uL) were transferred to a clean 96-well plate, evaporated to dryness under nitrogen flow and then reconstituted in 75 μL of 20% acetonitrile in water containing 0.10% formic acid.
Solid-Phase Extraction: Samples were diluted 3-fold with 5% NH4OH (aq) and loaded onto an Oasis MAX microElution plate (Waters Corp, Milford, MA) that had been pre-conditioned with 200 uL each of methanol and 5% NH4OH (aq). The plate was washed with 200 uL 5% NH4OH (aq), followed by 200 uL 20% acetonitrile in water. […] Samples were reconstituted in 80 uL 0.1% formic acid in water.
All calibration standards were prepared in control rat plasma containing K2EDTA and protease inhibitor cocktail. […] Samples were injected onto a 2.1×50 mm reverse phase C18 analytical column, typically a Waters ACQUITY UPLC™ HSS T3, 1.8 μm (Waters Corporation, Milford, MA) or similar. […] Typical flow rates were 600 L/min. The column temperature was held constant at 40 or 45° C. Peptides were quantified my monitoring one or more product ions produced from a multiply charged parent ion.

human GCGR = human GCGR (Homo sapiens, UniProt P47871); experiment: Peptide-receptor mediated cAMP accumulation (LANCE Ultra cAMP) in CHO-K1 cells transfected with human GCGR; format: cell-based; settings: Table 3
Chain of human GCGR (P47871 26-477): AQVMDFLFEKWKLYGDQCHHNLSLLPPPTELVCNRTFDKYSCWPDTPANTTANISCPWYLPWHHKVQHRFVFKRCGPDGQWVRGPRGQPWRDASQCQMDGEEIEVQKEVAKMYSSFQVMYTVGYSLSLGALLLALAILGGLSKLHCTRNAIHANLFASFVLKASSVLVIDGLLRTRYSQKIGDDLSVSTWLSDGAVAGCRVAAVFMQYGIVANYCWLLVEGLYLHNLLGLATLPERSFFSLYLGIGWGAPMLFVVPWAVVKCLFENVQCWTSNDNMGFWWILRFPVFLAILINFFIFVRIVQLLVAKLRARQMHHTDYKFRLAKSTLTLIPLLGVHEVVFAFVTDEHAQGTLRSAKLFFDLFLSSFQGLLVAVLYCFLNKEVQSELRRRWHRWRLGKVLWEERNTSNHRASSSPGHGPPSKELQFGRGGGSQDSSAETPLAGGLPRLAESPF

Chain of human GLP-1R (P43220 24-463): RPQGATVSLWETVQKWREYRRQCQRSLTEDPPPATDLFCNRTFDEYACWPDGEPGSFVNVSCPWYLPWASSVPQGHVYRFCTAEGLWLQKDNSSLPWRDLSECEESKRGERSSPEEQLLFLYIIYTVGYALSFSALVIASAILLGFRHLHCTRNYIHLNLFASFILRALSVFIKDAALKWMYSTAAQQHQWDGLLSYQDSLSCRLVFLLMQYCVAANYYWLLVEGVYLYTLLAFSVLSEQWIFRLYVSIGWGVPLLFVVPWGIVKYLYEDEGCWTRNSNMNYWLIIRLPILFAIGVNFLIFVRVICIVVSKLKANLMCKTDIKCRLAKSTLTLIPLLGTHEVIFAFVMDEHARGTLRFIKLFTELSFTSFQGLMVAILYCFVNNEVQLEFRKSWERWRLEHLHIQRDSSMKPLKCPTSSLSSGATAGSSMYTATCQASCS

| SMILES | EC50 (human GLP-1R) [nM] | clearance (in vivo) [mL/min/kg] | EC50 (human GCGR) [pM] |
| --- | --- | --- | --- |
| CC(C)C[C@H](NC(=O)[C@H](Cc1ccc(O)cc1)NC(=O)[C@H](CCCCN)NC(=O)[C@H](CO)NC(=O)[C@H](Cc1ccc(O)cc1)NC(=O)[C@H](CC(=O)O)NC(=O)[C@H](CO)NC(=O)[C@@H](NC(=O)[C@H](Cc1ccccc1)NC(=O)[C@@H](NC(=O)CNC(=O)[C@H](Cc1c[nH]cn1)NC(=O)[C@H](CO)NC(=O)[C@@H](N)Cc1ccc(O)cc1)[C@@H](C)O)[C@@H](C)O)C(=O)N[C@@H](CC(=O)O)C(=O)N[C@@H](CCCCN)C(=O)N[C@@H](C)C(=O)N[C@@H](CCCNC(=N)N)C(=O)N[C@@H](C)C(=O)N[C@@H](CCC(N)=O)C(=O)N[C@@H](CCC(=O)O)C(=O)N[C@@H](Cc1ccccc1)C(=O)N[C@H](C(=O)N[C@@H](CCCCN)C(=O)N[C@@H](Cc1c[nH]c2ccccc12)C(=O)N[C@@H](CC(C)C)C(=O)N[C@@H](CCC(=O)O)C(=O)N[C@@H](CC(=O)O)C(=O)N[C@@H](CCC(=O)O)C(=O)N1CCC[C@H]1C(=O)N[C@@H](CO)C(=O)N[C@@H](CO)C(=O)NCC(=O)N[C@@H](C)C(=O)N1CCC[C@H]1C(=O)N1CCC[C@H]1C(=O)N1CCC[C@H]1C(=O)N[C@@H](CO)C(=O)O)C(C)C [Compound A43] (H-YSHGTFTSDYSKYLDKARAQEFVKWLEDEPSSGAPPPS-OH; N-terminus assumed) | > 1 | 47 | 1.58 |
| CC(C)C[C@H](NC(=O)[C@H](Cc1ccc(O)cc1)NC(=O)[C@H](CCCCN)NC(=O)[C@H](CO)NC(=O)[C@H](Cc1ccc(O)cc1)NC(=O)[C@H](CC(=O)O)NC(=O)[C@H](CO)NC(=O)[C@@H](NC(=O)[C@H](Cc1ccccc1)NC(=O)[C@@H](NC(=O)CNC(=O)[C@H](Cc1c[nH]cn1)NC(=O)[C@H](CO)NC(=O)[C@@H](N)Cc1ccc(O)cc1)[C@@H](C)O)[C@@H](C)O)C(=O)N[C@@H](CC(=O)O)C(=O)N[C@@H](CO)C(=O)N[C@@H](C)C(=O)N[C@@H](CCCNC(=N)N)C(=O)N[C@@H](C)C(=O)N[C@@H](CCC(N)=O)C(=O)N[C@@H](CCC(=O)O)C(=O)N[C@@H](Cc1ccccc1)C(=O)N[C@H](C(=O)N[C@@H](CCCCN)C(=O)N[C@@H](Cc1c[nH]c2ccccc12)C(=O)N[C@@H](CC(C)C)C(=O)N[C@@H](CCC(=O)O)C(=O)N[C@@H](CC(=O)O)C(=O)N[C@@H](CCC(=O)O)C(=O)N1CCC[C@H]1C(=O)N[C@@H](CCCCN)C(=O)N[C@@H](CO)C(=O)N[C@@H](CCCCN)C(=O)N[C@@H](CCC(=O)O)C(=O)N1CCC[C@H]1C(=O)N1CCC[C@H]1C(=O)N1CCC[C@H]1C(=O)N[C@@H](CO)C(N)=O)C(C)C [Compound A72] (H-YSHGTFTSDYSKYLDSARAQEFVKWLEDEPKSKEPPPS-NH2) | > 1 | 31.3 | – |
| CC(C)C[C@H](NC(=O)[C@H](Cc1ccc(O)cc1)NC(=O)[C@H](CCCCN)NC(=O)[C@H](CO)NC(=O)[C@H](Cc1ccc(O)cc1)NC(=O)[C@H](CC(=O)O)NC(=O)[C@H](CO)NC(=O)[C@@H](NC(=O)[C@H](Cc1ccccc1)NC(=O)[C@@H](NC(=O)CNC(=O)[C@H](Cc1c[nH]cn1)NC(=O)[C@H](CO)NC(=O)[C@@H](N)Cc1ccc(O)cc1)[C@@H](C)O)[C@@H](C)O)C(=O)N[C@@H](CC(=O)O)C(=O)NC(C)(C)C(=O)N[C@@H](CCCCN)C(=O)N[C@@H](C)C(=O)N[C@@H](C)C(=O)N[C@@H](CCC(N)=O)C(=O)N[C@@H](CCC(=O)O)C(=O)N[C@@H](Cc1ccccc1)C(=O)N[C@H](C(=O)NC(C)(C)C(=O)N[C@@H](Cc1c[nH]c2ccccc12)C(=O)N[C@@H](CC(C)C)C(=O)N[C@@H](CCC(=O)O)C(=O)N[C@@H](CC(=O)O)C(=O)N[C@@H](CCC(=O)O)C(=O)N1CCC[C@H]1C(=O)N[C@@H](CO)C(=O)N[C@@H](CO)C(=O)NCC(=O)N[C@@H](C)C(=O)N1CCC[C@H]1C(=O)N1CCC[C@H]1C(=O)N1CCC[C@H]1C(=O)N[C@@H](CO)C(=O)O)C(C)C [Compound A76] (H-YSHGTFTSDYSKYLD[Aib]KAAQEFV[Aib]WLEDEPSSGAPPPS-OH; N-terminus assumed) | > 1 | 15.1 | – |
| CC(C)C[C@H](NC(=O)[C@H](Cc1ccc(O)cc1)NC(=O)[C@H](CCCCN)NC(=O)[C@H](CO)NC(=O)[C@H](Cc1ccc(O)cc1)NC(=O)[C@H](CC(=O)O)NC(=O)[C@H](CO)NC(=O)[C@@H](NC(=O)[C@H](Cc1ccccc1)NC(=O)[C@@H](NC(=O)CNC(=O)[C@H](CCC(N)=O)NC(=O)[C@H](CO)NC(=O)[C@@H](N)Cc1ccc(O)cc1)[C@@H](C)O)[C@@H](C)O)C(=O)N[C@@H](CC(=O)O)C(=O)NC(C)(C)C(=O)N[C@@H](CCCCN)C(=O)N[C@@H](CCCNC(=N)N)C(=O)N[C@@H](C)C(=O)N[C@@H](CCC(N)=O)C(=O)N[C@@H](CCC(=O)O)C(=O)N[C@@H](Cc1ccccc1)C(=O)N[C@H](C(=O)NC(C)(C)C(=O)N[C@@H](Cc1c[nH]c2ccccc12)C(=O)N[C@@H](CC(C)C)C(=O)N[C@@H](CCC(=O)O)C(=O)N[C@@H](CC(=O)O)C(=O)N[C@@H](CCC(=O)O)C(=O)N1CCC[C@H]1C(=O)N[C@@H](CO)C(=O)N[C@@H](CO)C(=O)NCC(=O)N[C@@H](CCCCN)C(=O)N1CCC[C@H]1C(=O)N1CCC[C@H]1C(=O)N1CCC[C@H]1C(=O)N[C@@H](CO)C(=O)O)C(C)C [Compound A86] (H-YSQGTFTSDYSKYLD[Aib]KRAQEFV[Aib]WLEDEPSSGKPPPS-OH; N-terminus assumed) | > 1 | 14.7 | – |
| CC(C)C[C@H](NC(=O)[C@H](Cc1ccc(O)cc1)NC(=O)[C@H](CCCCN)NC(=O)[C@H](CO)NC(=O)[C@H](Cc1ccc(O)cc1)NC(=O)[C@H](CC(=O)O)NC(=O)[C@H](CO)NC(=O)[C@@H](NC(=O)[C@H](Cc1ccccc1)NC(=O)[C@@H](NC(=O)CNC(=O)[C@H](CCC(N)=O)NC(=O)[C@H](CO)NC(=O)[C@@H](N)Cc1c[nH]c2ccccc12)[C@@H](C)O)[C@@H](C)O)C(=O)N[C@@H](CC(=O)O)C(=O)NC(C)(C)C(=O)N[C@@H](CCCCN)C(=O)N[C@@H](CCCNC(=N)N)C(=O)N[C@@H](C)C(=O)N[C@@H](CCC(N)=O)C(=O)N[C@@H](CCC(=O)O)C(=O)N[C@@H](Cc1ccccc1)C(=O)N[C@H](C(=O)NC(C)(C)C(=O)N[C@@H](Cc1c[nH]c2ccccc12)C(=O)N[C@@H](CC(C)C)C(=O)N[C@@H](CCC(=O)O)C(=O)N[C@@H](CC(=O)O)C(=O)N[C@@H](CCC(=O)O)C(=O)N1CCC[C@H]1C(=O)N[C@@H](CO)C(=O)N[C@@H](CO)C(=O)NCC(=O)N[C@@H](CCCCN)C(=O)N1CCC[C@H]1C(=O)N1CCC[C@H]1C(=O)N1CCC[C@H]1C(=O)N[C@@H](CO)C(=O)O)C(C)C [Compound A91] (H-WSQGTFTSDYSKYLD[Aib]KRAQEFV[Aib]WLEDEPSSGKPPPS-OH; N-terminus assumed) | > 1 | 13.7 | – |
| CC(C)C[C@H](NC(=O)[C@H](Cc1ccc(O)cc1)NC(=O)[C@H](CCCCN)NC(=O)[C@H](CO)NC(=O)[C@H](Cc1ccc(O)cc1)NC(=O)[C@H](CC(=O)O)NC(=O)[C@H](CO)NC(=O)[C@@H](NC(=O)[C@H](Cc1ccccc1)NC(=O)[C@@H](NC(=O)CNC(=O)[C@H](CCC(N)=O)NC(=O)[C@H](CO)NC(=O)[C@@H](N)Cc1ccc(O)cc1)[C@@H](C)O)[C@@H](C)O)C(=O)N[C@@H](CC(=O)O)C(=O)NC(C)(C)C(=O)N[C@@H](CCCCN)C(=O)N[C@@H](CCCNC(=N)N)C(=O)N[C@@H](C)C(=O)N[C@@H](CCC(N)=O)C(=O)N[C@@H](CCC(=O)O)C(=O)N[C@@H](Cc1ccccc1)C(=O)N[C@H](C(=O)NC(C)(C)C(=O)N[C@@H](Cc1c[nH]c2ccccc12)C(=O)N[C@@H](CC(C)C)C(=O)N[C@@H](CCC(=O)O)C(=O)N[C@@H](CC(=O)O)C(=O)N[C@@H](CCC(=O)O)C(=O)N1CCC[C@H]1C(=O)N[C@@H](CO)C(=O)N[C@@H](CO)C(=O)NCC(=O)N[C@@H](C)C(=O)N1CCC[C@H]1C(=O)N1CCC[C@H]1C(=O)N1CCC[C@H]1C(=O)N[C@@H](CO)C(=O)O)C(C)C [Compound A94] (H-YSQGTFTSDYSKYLD[Aib]KRAQEFV[Aib]WLEDEPSSGAPPPS-OH; N-terminus assumed) | > 1 | 16.5 | – |
| CC(C)C[C@H](NC(=O)[C@H](Cc1ccc(O)cc1)NC(=O)[C@H](CCCCN)NC(=O)[C@H](CO)NC(=O)[C@H](Cc1ccc(O)cc1)NC(=O)[C@H](CC(=O)O)NC(=O)[C@H](CO)NC(=O)[C@@H](NC(=O)[C@H](Cc1ccccc1)NC(=O)[C@@H](NC(=O)CNC(=O)[C@H](CCC(N)=O)NC(=O)[C@H](CO)NC(=O)[C@@H](N)Cc1ccc(O)cc1)[C@@H](C)O)[C@@H](C)O)C(=O)N[C@@H](CC(=O)O)C(=O)NC(C)(C)C(=O)N[C@@H](CCCCN)C(=O)N[C@@H](C)C(=O)N[C@@H](C)C(=O)N[C@@H](CCC(N)=O)C(=O)N[C@@H](CCC(=O)O)C(=O)N[C@@H](Cc1ccccc1)C(=O)N[C@H](C(=O)NC(C)(C)C(=O)N[C@@H](Cc1c[nH]c2ccccc12)C(=O)N[C@@H](CC(C)C)C(=O)N[C@@H](CCC(=O)O)C(=O)N[C@@H](CC(=O)O)C(=O)N[C@@H](CCC(=O)O)C(=O)N1CCC[C@H]1C(=O)N[C@@H](CO)C(=O)N[C@@H](CO)C(=O)NCC(=O)N[C@@H](C)C(=O)N1CCC[C@H]1C(=O)N1CCC[C@H]1C(=O)N1CCC[C@H]1C(=O)N[C@@H](CO)C(=O)O)C(C)C [Compound A95] (H-YSQGTFTSDYSKYLD[Aib]KAAQEFV[Aib]WLEDEPSSGAPPPS-OH; N-terminus assumed) | > 1 | 15.4 | – |

Source: patent US20240239861A1, “GLUCAGON-RECEPTOR SELECTIVE POLYPEPTIDES AND METHODS OF USE THEREOF” (i2O Therapeutics, Inc., priority 2016, published 2024)
